Measured values published in patent publication US20230203445A1, “HYPOIMMUNOGENIC CELLS” (HEALIOS K.K., priority 2020, published 2023).

Tested on: iCaspase9-introduced cells
Experiment: Suicide gene function: cell death induction by rapamycin (CellTiter Glo)
Assay type: cell-based, human
Conditions: 24 hr
Description: Next, an experiment was conducted to confirm whether the introduced suicide gene is functionable. In order to confirm the function of the suicide gene iCaspase9 introduced into universal donor iPS cells as a safety mechanism, the cell death induction by the addition of rapamycin in vitro was confirmed. In order to evaluate the cell death induction efficiency, CellTiter Glo Assay Kit (Promega) was used to luminescence measure the cell viability based on the amount of ATP, which is an index of cell viability. The above-mentioned iCaspase9-introduced cells (clone B), and iCaspase9-free unedited cells (Parental) were cultured for 24 hr under the condition of each rapamycin concentration (0 nM, 0.003 nM, 0.01 nM, 0.03 nM, 0.1 nM, 0.3 nM, 1 nM) and the viable cell rate was measured.

CO[C@H]1C[C@@H]2CC[C@@H](C)[C@@](O)(O2)C(=O)C(=O)N2CCCC[C@H]2C(=O)O[C@H]([C@H](C)C[C@@H]2CC[C@@H](O)[C@H](OC)C2)CC(=O)[C@H](C)/C=C(\C)[C@@H](O)[C@@H](OC)C(=O)[C@H](C)C[C@H](C)/C=C/C=C/C=C/1C [rapamycin]
rapamycin concentration at which cell death was induced by iCaspase9: ≥ 0.1 nM
